Results reported in ChEMBL document CHEMBL1143416, “In vitro susceptibility to posaconazole of 1,903 yeast isolates recovered in France from 2003 to 2006 and tested by the method of the European committee on antimicrobial susceptibility testing” (2007).

Columns and labels:
Type in all cases: functional
[Candida] haemuloni = Antimicrobial activity against Candida haemulonii isolate; details: Candidozyma haemuli
Meyerozyma caribbica = experiment: Antimicrobial activity against Candida fermentati isolate
Saccharomyces cerevisiae = experiment: Antimicrobial activity against Saccharomyces cerevisiae isolate
Cyberlindnera jadinii = experiment: Antimicrobial activity against Candida utilis isolate; details: Williopsis jadinii
Yarrowia lipolytica = experiment: Antimicrobial activity against Candida lipolytica isolate
Wickerhamomyces anomalus = experiment: Antimicrobial activity against Candida pelliculosa isolate; details: Hansenula anomala
[Candida] palmioleophila = Antimicrobial activity against Candida palmioleophila isolate; details: Suzukiozyma palmioleophila
Magnusiomyces capitatus = experiment: Antimicrobial activity against Geotrichum capitatum isolate
Rhodotorula mucilaginosa = experiment: Antimicrobial activity against Rhodotorula mucilaginosa isolate
[Candida] inconspicua = Antimicrobial activity against Candida inconspicua isolate; details: Pichia inconspicua
Candida africana = experiment: Antimicrobial activity against Candida africana isolate
Trichosporon = experiment: Antimicrobial activity against Trichosporon isolate
Debaryomyces hansenii = experiment: Antimicrobial activity against Candida famata isolate
Trichosporon asahii = experiment: Antimicrobial activity against Trichosporon asahii isolate
Trichosporon inkin = experiment: Antimicrobial activity against Trichosporon inkin isolate
Diutina rugosa = experiment: Antimicrobial activity against Candida rugosa isolate
Kodamaea ohmeri = experiment: Antimicrobial activity against Pichia ohmeri isolate
Apiotrichum loubieri = experiment: Antimicrobial activity against Trichosporon loubieri isolate
[1] = system: Cutaneotrichosporon mucoides; experiment: Antimicrobial activity against Trichosporon mucoides isolate
Candida albicans [2] = experiment: Antimicrobial activity against Candida albicans isolate
Nakaseomyces glabratus [3] = experiment: Antimicrobial activity against Candida glabrata isolate
Candida parapsilosis [4] = experiment: Antimicrobial activity against Candida parapsilosis isolate; details: Lodderomyces parapsilosis
Candida tropicalis [5] = experiment: Antimicrobial activity against Candida tropicalis isolate
Cryptococcus neoformans [6] = experiment: Antimicrobial activity against Cryptococcus neoformans isolate
Pichia kudriavzevii [7] = experiment: Antimicrobial activity against Candida krusei isolate
Kluyveromyces marxianus [8] = experiment: Antimicrobial activity against Candida kefyr isolate
Candida dubliniensis [9] = experiment: Antimicrobial activity against Candida dubliniensis isolate
[10] = system: Meyerozyma guilliermondii; experiment: Antimicrobial activity against Candida guilliermondii isolate
Nakaseomyces glabratus [11] = experiment: Antimicrobial activity against Candida glabrata blood isolate
Candida parapsilosis [12] = experiment: Antimicrobial activity against Candida parapsilosis blood isolate; details: Lodderomyces parapsilosis
Candida tropicalis [13] = experiment: Antimicrobial activity against Candida tropicalis blood isolate
Cryptococcus neoformans [14] = experiment: Antimicrobial activity against Cryptococcus neoformans blood isolate
Pichia kudriavzevii [15] = experiment: Antimicrobial activity against Candida krusei blood isolate
Kluyveromyces marxianus [16] = experiment: Antimicrobial activity against Candida kefyr blood isolate
Candida dubliniensis [17] = experiment: Antimicrobial activity against Candida dubliniensis blood isolate
[18] = system: Meyerozyma guilliermondii; experiment: Antimicrobial activity against Candida guilliermondii blood isolate
Clavispora lusitaniae [19] = experiment: Antimicrobial activity against Candida lusitaniae blood isolate
Candida albicans [20] = experiment: Antimicrobial activity against Candida albicans isolate from superficial infection
Nakaseomyces glabratus [21] = experiment: Antimicrobial activity against Candida glabrata isolate from superficial infection
Candida parapsilosis [22] = experiment: Antimicrobial activity against Candida parapsilosis isolate from superficial infection; details: Lodderomyces parapsilosis
Candida tropicalis [23] = experiment: Antimicrobial activity against Candida tropicalis isolate from superficial infection
Cryptococcus neoformans [24] = experiment: Antimicrobial activity against Cryptococcus neoformans isolate from superficial infection
Pichia kudriavzevii [25] = experiment: Antimicrobial activity against Candida krusei isolate from superficial infection
Candida dubliniensis [26] = experiment: Antimicrobial activity against Candida dubliniensis isolate from superficial infection
[27] = system: Meyerozyma guilliermondii; experiment: Antimicrobial activity against Candida guilliermondii isolate from superficial infection
Clavispora lusitaniae [28] = experiment: Antimicrobial activity against Candida lusitaniae isolate from superficial infection
Clavispora lusitaniae [29] = experiment: Antimicrobial activity against Candida lusitaniae isolate
Candida albicans [30] = experiment: Antimicrobial activity against Candida albicans blood isolate

OC(Cn1cncn1)(Cn1cncn1)c1ccc(F)cc1F [FLUCONAZOLE]
16 µg/mL: MIC50 ([Candida] inconspicua)
0.125 µg/mL: MIC50 (Debaryomyces hansenii)
8 µg/mL: MIC50 (Meyerozyma caribbica) | MIC50 ([Candida] palmioleophila) | MIC50 (Kodamaea ohmeri)
2 µg/mL: MIC50 (Yarrowia lipolytica) | MIC50 (Wickerhamomyces anomalus) | MIC50 (Trichosporon) | MIC50 (Trichosporon asahii) | MIC50 (Apiotrichum loubieri) | MIC50 [1]
32 µg/mL: MIC50 ([Candida] haemuloni)
1 µg/mL: MIC50 (Cyberlindnera jadinii) | MIC50 (Diutina rugosa)
0.25 µg/mL: MIC50 (Saccharomyces cerevisiae) | MIC50 (Candida africana)
4 µg/mL: MIC50 (Magnusiomyces capitatus)
0.5 µg/mL: MIC50 (Trichosporon inkin)
≥ 64 µg/mL: MIC90 ([Candida] haemuloni) | MIC90 (Meyerozyma caribbica) | MIC50 (Rhodotorula mucilaginosa)

CC[C@@H]([C@H](C)O)n1ncn(-c2ccc(N3CCN(c4ccc(OC[C@@H]5CO[C@@](Cn6cncn6)(c6ccc(F)cc6F)C5)cc4)CC3)cc2)c1=O [POSACONAZOLE]
0.125 µg/mL: MIC90 (Candida albicans [2]) | MIC50 (Candida parapsilosis [4]) | MIC50 (Candida tropicalis [5]) | MIC50 (Cryptococcus neoformans [6]) | MIC50 (Kluyveromyces marxianus [8]) | MIC90 (Candida dubliniensis [9]) | MIC50 (Candida parapsilosis [12]) | MIC50 (Candida tropicalis [13]) | MIC50 (Cryptococcus neoformans [14]) | MIC50 (Kluyveromyces marxianus [16]) | MIC90 (Candida dubliniensis [17]) | MIC50 (Candida parapsilosis [22]) | MIC50 (Candida tropicalis [23]) | MIC50 (Cryptococcus neoformans [24]) | MIC50 (Cyberlindnera jadinii) | MIC50 (Yarrowia lipolytica) | MIC50 ([Candida] palmioleophila) | MIC50 ([Candida] inconspicua) | MIC50 (Debaryomyces hansenii) | MIC90 (Candida albicans [30])
0.03 µg/mL: MIC (Clavispora lusitaniae [28]) | MIC50 (Saccharomyces cerevisiae) | MIC50 (Candida albicans [30])
4 µg/mL: MIC90 (Candida tropicalis [23])
0.06 µg/mL: MIC50 (Candida albicans [2]) | MIC50 (Candida dubliniensis [9]) | MIC50 (Candida dubliniensis [17]) | MIC50 (Clavispora lusitaniae [19]) | MIC50 (Candida albicans [20]) | MIC50 (Wickerhamomyces anomalus) | MIC50 (Trichosporon) | MIC50 (Trichosporon inkin) | MIC50 (Diutina rugosa) | MIC50 (Kodamaea ohmeri) | MIC50 (Apiotrichum loubieri) | MIC50 [1] | MIC50 (Clavispora lusitaniae [29])
0.25 µg/mL: MIC90 (Candida parapsilosis [4]) | MIC90 (Candida tropicalis [5]) | MIC50 (Pichia kudriavzevii [7]) | MIC90 (Kluyveromyces marxianus [8]) | MIC50 [10] | MIC90 (Candida parapsilosis [12]) | MIC50 (Pichia kudriavzevii [15]) | MIC50 [18] | MIC90 (Clavispora lusitaniae [19]) | MIC90 (Candida albicans [20]) | MIC90 (Candida parapsilosis [22]) | MIC50 (Pichia kudriavzevii [25]) | MIC50 (Meyerozyma caribbica) | MIC50 (Trichosporon asahii) | MIC90 (Clavispora lusitaniae [29])
0.5 µg/mL: MIC90 (Cryptococcus neoformans [6]) | MIC90 (Pichia kudriavzevii [7]) | MIC90 [10] | MIC90 (Candida tropicalis [13]) | MIC90 (Cryptococcus neoformans [14]) | MIC90 (Pichia kudriavzevii [15]) | MIC90 (Kluyveromyces marxianus [16]) | MIC90 (Cryptococcus neoformans [24]) | MIC90 (Pichia kudriavzevii [25]) | MIC50 [27] | MIC90 [27] | MIC50 (Magnusiomyces capitatus)
1 µg/mL: MIC50 (Nakaseomyces glabratus [3]) | MIC50 (Nakaseomyces glabratus [11]) | MIC90 [18] | MIC50 (Nakaseomyces glabratus [21]) | MIC90 (Meyerozyma caribbica) | MIC50 (Rhodotorula mucilaginosa)
≥ 8 µg/mL: MIC90 (Nakaseomyces glabratus [3]) | MIC90 (Nakaseomyces glabratus [11]) | MIC90 (Nakaseomyces glabratus [21]) | MIC50 ([Candida] haemuloni) | MIC90 ([Candida] haemuloni)
≤ 0.015 µg/mL: MIC (Candida dubliniensis [26]) | MIC50 (Candida africana)

C[C@@H](c1ncncc1F)[C@](O)(Cn1cncn1)c1ccc(F)cc1F [VORICONAZOLE]
0.03 µg/mL: MIC50 (Cyberlindnera jadinii) | MIC50 (Wickerhamomyces anomalus) | MIC50 (Trichosporon) | MIC50 (Trichosporon asahii) | MIC50 (Kodamaea ohmeri) | MIC50 (Apiotrichum loubieri) | MIC50 [1]
≥ 8 µg/mL: MIC50 ([Candida] haemuloni) | MIC90 ([Candida] haemuloni)
≤ 0.015 µg/mL: MIC50 (Saccharomyces cerevisiae) | MIC50 (Yarrowia lipolytica) | MIC50 (Magnusiomyces capitatus) | MIC50 (Candida africana) | MIC50 (Debaryomyces hansenii) | MIC50 (Trichosporon inkin) | MIC50 (Diutina rugosa)
0.125 µg/mL: MIC50 (Meyerozyma caribbica)
0.06 µg/mL: MIC50 ([Candida] palmioleophila) | MIC50 ([Candida] inconspicua)
2 µg/mL: MIC50 (Rhodotorula mucilaginosa)
1 µg/mL: MIC90 (Meyerozyma caribbica)
